Measured values taken from PubChem BioAssay (NCI).
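Values below derive from 48-hour exposures of cells grown in 96-well plates, with endpoints linearly interpolated between the two concentrations bracketing the appropriate inhibition level. Here, GI50 denotes the concentration required for 50% inhibition of growth. Definition used: TGI = concentration required for complete inhibition of growth.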

What was measured:
Experiment in all cases: NCI-60 cell line screen, 48 h
[1] = test system: OVCAR-5 ovarian
[2] = test system: KM12 colon
[3] = test system: COLO 205 colon
[4] = test system: SF-268 CNS
[5] = test system: SN12C renal
[6] = test system: SK-MEL-5 melanoma
[7] = test system: ACHN renal
[8] = test system: HCT-15 colon
[9] = test system: SK-MEL-2 melanoma
[10] = test system: NCI-H522 lung

SMILES	TGI [1] [µM]	TGI [2] [µM]	TGI [3] [µM]	TGI [4] [µM]	TGI [5] [µM]	TGI [6] [µM]	TGI [7] [µM]	TGI [8] [µM]	TGI [9] [µM]	TGI [10] [µM]	GI50 [1] [µM]	GI50 [3] [µM]	GI50 [6] [µM]	GI50 [10] [µM]	GI50 [8] [µM]	GI50 [9] [µM]	GI50 [2] [µM]	GI50 [4] [µM]	GI50 [5] [µM]	GI50 [7] [µM]
O=S(=O)(N/N=C/c1cccc(Cl)c1Cl)c1ccccc1	> 100	> 100	> 100	> 100	> 100	> 100	> 100	> 100	> 100											
CC1=C(C(=O)Nc2cc(=O)n(C)c(=O)n2C)C(c2ccc([N+](=O)[O-])cc2)C(C(=O)Nc2cc(=O)n(C)c(=O)n2C)=C(C)N1	> 100	> 100	> 100	> 100	> 100		> 100	> 100	> 100	> 100										
Cc1ccc(C2NC(=O)c3ccccc3N2)s1 (stereo unspecified)	> 100	> 100		> 100	52.8	> 100	> 100	> 100	42	18.6										
CC(=O)OC1CC2Oc3ccc(C)cc3C(C)(O2)C1=O (stereo unspecified)		> 100	> 100		> 100	> 100	> 100	> 100		> 100										
COc1ccc(C(=O)C(c2ccc(OC)cc2)C2OC(=O)C(Cl)=C2Cl)cc1 (stereo unspecified)	> 100	> 100		> 100	> 100	> 100	> 100	> 100	> 100	> 100										
CN(/N=C/c1cccc2cccnc12)c1ccc([N+](=O)[O-])cc1	> 100	> 100	> 100	> 100	> 100	> 100	> 100	> 100	> 100											
CC#C/C(=N\OC[C@H]1COCCN1)c1ccc2ncnc(Nc3ccc(OCc4cccc(F)c4)c(Cl)c3)c2c1	4.27		3.33			3.45		2.81	3.61	2.25	1.65	1.77	1.85	0.393	1.41	1.97				
Cc1ccc(C(=O)Nc2ccc(S(=O)(=O)O)c3cc(S(=O)(=O)O)cc(S(=O)(=O)O)c23)cc1NC(=S)Nc1cc(C(=O)Nc2ccc(S(=O)(=O)O)c3cc(S(=O)(=O)O)cc(S(=O)(=O)O)c23)ccc1C	> 75			> 75	> 75	> 75	> 75	> 75	> 75	> 75										
CN(C)CCNC(=O)c1cccc2c(Nc3ccc(S(N)(=O)=O)cc3)c3ccccc3nc12	6.56		1.75	7.49	3.9	10.3	5.2	7.07	3.69	2.8										
COc1cc(O)c2c(c1)C(=O)C=C(Cl)C2=O	> 100	> 100	> 100	> 100		> 100	> 100	> 100	> 100	> 100										
CN(C)CCSc1cccc(-c2cc(-c3cccc(SCCN(C)C)c3)nc(SCCN(C)C)n2)c1	19.5	3.44			24.7	2.96	19.4	4.67	21.1	2.98										
O=C(O)/C(Cl)=C(\Cl)C(=O)NC1C2CC3CC(C2)CC1C3 (stereo unspecified)	> 100	96.2	> 100	> 100	> 100	> 100	> 100	> 100		> 100										
O=c1c(O)cccc2cc(O)c(O)c(O)c12	> 100	> 100	> 100	> 100	> 100	> 100	> 100	> 100		14.5	41.8	> 100	> 100	3.63	39.1		26.9	5.34	57.4	7.82
O=C1c2ccccc2NC1(c1ccccc1)c1c(-c2ccccc2)[nH]c2ccccc12 (stereo unspecified)		> 100	35.3		> 100		> 100	> 100	> 100											
CCN(CC)c1ccc2c(c1)Oc1nc(N)c(C#N)c(N)c1C2Sc1ccc(OC)cc1 (stereo unspecified)	4.6	3.73	3.65	3.58		2.9	2.94	3.11	3.14	3.38	2.04	1.88	1.54	1.79	1.53	1.56	1.74	1.85		1.59
CCN(CC)CCCC(C)Nc1ccnc2ccc3nn(C)nc3c12 (stereo unspecified)	> 100	> 100	> 100	> 100	> 100	> 100	> 100													
